± gives the expanded uncertainty stated by the source.
Columns and labels:
[1] = Crystal; DTA
[2] = molar enthalpy of vaporization or sublimation; details: 333.15 K, Crystal
[3] = molar heat capacity at constant pressure; details: 101.33 kPa, Small sample (50 mg) DSC
[4] = Molar enthalpy of transition or fusion; details: Crystal; DSC

[CH]1C=CC=C1.[CH]1C=CC=C1.[Fe] [ferrocene]
Details	Molar enthalpy of transition or fusion [kcal/mol]	Normal melting temperature [°C]
[1]	–	175 ± 0.9
[4]	4.25 ± 0.143	–

[2]
Details	molar enthalpy [kcal/mol]
DSC	17.3 ± 0.717
Static calorimetry	17.5 ± 0.574

molar heat capacity at constant pressure [J/K/mol], [3]
Details	Crystal	Gas
293 K	186.22 ± 19	163.5 ± 17
294 K	186.78 ± 19	164.13 ± 17
295 K	187.52 ± 19	164.76 ± 17
296 K	188.08 ± 19	165.39 ± 17
297 K	189.01 ± 19	166.02 ± 17
298 K	189.75 ± 19	166.65 ± 17
298.15 K	189.75 ± 19	–
299 K	190.5 ± 19	167.27 ± 17
300 K	191.24 ± 19	167.9 ± 17
301 K	191.8 ± 19	168.53 ± 17
302 K	192.36 ± 19	169.15 ± 17
303 K	193.1 ± 20	169.78 ± 17
304 K	193.84 ± 20	170.4 ± 17
305 K	194.4 ± 20	171.03 ± 17
306 K	195.15 ± 20	171.65 ± 17
307 K	195.7 ± 20	172.27 ± 17
308 K	196.45 ± 20	172.9 ± 17
309 K	197.19 ± 20	173.52 ± 18
310 K	197.94 ± 20	174.14 ± 18
311 K	198.31 ± 20	174.76 ± 18
312 K	199.24 ± 20	175.38 ± 18
313 K	199.8 ± 20	176 ± 18
314 K	200.54 ± 20	176.61 ± 18
315 K	201.29 ± 20	177.23 ± 18
316 K	202.03 ± 20	177.85 ± 18
317 K	202.77 ± 20	178.46 ± 18
318 K	203.33 ± 21	179.07 ± 18
319 K	204.08 ± 21	179.69 ± 18
320 K	204.45 ± 21	180.3 ± 18
321 K	205.38 ± 21	180.91 ± 18
322 K	205.94 ± 21	181.52 ± 18
323 K	207.05 ± 21	182.13 ± 18
324 K	207.61 ± 21	182.74 ± 18
325 K	208.35 ± 21	183.35 ± 19
326 K	209.1 ± 21	183.96 ± 19
327 K	209.66 ± 21	184.56 ± 19
328 K	210.22 ± 21	185.17 ± 19
329 K	210.77 ± 21	185.77 ± 19
330 K	211.33 ± 21	186.37 ± 19
331 K	212.26 ± 21	186.98 ± 19
332 K	213.01 ± 22	187.58 ± 19
333 K	213.75 ± 22	188.18 ± 19
334 K	214.49 ± 22	188.78 ± 19
335 K	215.24 ± 22	189.37 ± 19
336 K	215.8 ± 22	189.97 ± 19
337 K	216.54 ± 22	190.57 ± 19
338 K	217.28 ± 22	191.16 ± 19
339 K	218.21 ± 22	191.76 ± 19
340 K	218.77 ± 22	192.35 ± 19
341 K	219.7 ± 22	192.94 ± 19
342 K	220.26 ± 22	193.53 ± 20
343 K	221.01 ± 22	194.12 ± 20
344 K	221.56 ± 22	194.71 ± 20
345 K	222.49 ± 22	195.3 ± 20
346 K	223.24 ± 23	195.88 ± 20
347 K	223.8 ± 23	196.47 ± 20
348 K	223.98 ± 23	197.05 ± 20
349 K	225.1 ± 23	197.64 ± 20
350 K	226.77 ± 23	198.22 ± 20
351 K	226.59 ± 23	198.8 ± 20
352 K	226.96 ± 23	199.38 ± 20
353 K	227.7 ± 23	199.96 ± 20

[Ni+2].c1cc[cH-]c1.c1cc[cH-]c1 [nickelocene]
Details	Molar enthalpy of transition or fusion [kcal/mol]	Normal melting temperature [°C]
[1]	–	177.7 ± 0.9
[4]	4.54 ± 0.215	–

[2]
Details	molar enthalpy [kcal/mol]
DSC	17.1 ± 0.741
Static calorimetry	17.2 ± 1.05

molar heat capacity at constant pressure [J/K/mol], [3]
Details	Crystal	Gas
293 K	199.08 ± 20	171.05 ± 17
294 K	199.83 ± 20	171.62 ± 17
295 K	200.59 ± 20	172.19 ± 17
296 K	201.35 ± 20	172.76 ± 17
297 K	202.1 ± 20	173.33 ± 18
298 K	203.05 ± 21	173.9 ± 18
298.15 K	203.23 ± 21	–
299 K	203.8 ± 21	174.47 ± 18
300 K	204.37 ± 21	175.04 ± 18
301 K	205.31 ± 21	175.6 ± 18
302 K	206.07 ± 21	176.17 ± 18
303 K	206.63 ± 21	176.74 ± 18
304 K	207.2 ± 21	177.31 ± 18
305 K	208.15 ± 21	177.88 ± 18
306 K	208.9 ± 21	178.45 ± 18
307 K	209.66 ± 21	179.02 ± 18
308 K	210.6 ± 21	179.58 ± 18
309 K	211.36 ± 21	180.15 ± 18
310 K	212.11 ± 21	180.72 ± 18
311 K	212.68 ± 21	181.29 ± 18
312 K	213.43 ± 22	181.85 ± 18
313 K	214 ± 22	182.42 ± 18
314 K	214.76 ± 22	182.99 ± 18
315 K	215.51 ± 22	183.55 ± 19
316 K	216.08 ± 22	184.12 ± 19
317 K	216.83 ± 22	184.68 ± 19
318 K	217.59 ± 22	185.25 ± 19
319 K	218.35 ± 22	185.81 ± 19
320 K	218.91 ± 22	186.37 ± 19
321 K	219.67 ± 22	186.94 ± 19
322 K	220.23 ± 22	187.5 ± 19
323 K	221.37 ± 22	188.06 ± 19
324 K	222.31 ± 22	188.62 ± 19
325 K	223.07 ± 23	189.19 ± 19
326 K	223.82 ± 23	189.75 ± 19
327 K	224.58 ± 23	190.31 ± 19
328 K	225.14 ± 23	190.87 ± 19
329 K	225.71 ± 23	191.43 ± 19
330 K	226.09 ± 23	191.98 ± 19
331 K	226.84 ± 23	192.54 ± 19
332 K	227.6 ± 23	193.1 ± 20
333 K	228.17 ± 23	193.66 ± 20
334 K	228.92 ± 23	194.21 ± 20
335 K	229.49 ± 23	194.77 ± 20
336 K	230.24 ± 23	195.32 ± 20
337 K	230.62 ± 23	195.88 ± 20
338 K	231.19 ± 23	196.43 ± 20
339 K	231.76 ± 23	196.98 ± 20
340 K	232.51 ± 23	197.54 ± 20
341 K	233.08 ± 24	198.09 ± 20
342 K	233.83 ± 24	198.64 ± 20
343 K	234.21 ± 24	199.19 ± 20
344 K	234.97 ± 24	199.74 ± 20
345 K	235.53 ± 24	200.29 ± 20
346 K	236.1 ± 24	200.84 ± 20
347 K	236.67 ± 24	201.38 ± 20
348 K	237.23 ± 24	201.93 ± 20
349 K	237.99 ± 24	202.48 ± 20
350 K	238.56 ± 24	203.02 ± 21
351 K	238.93 ± 24	203.56 ± 21
352 K	239.69 ± 24	204.11 ± 21
353 K	240.07 ± 24	204.65 ± 21

— the NIST ThermoML archive (doi:10.1016/j.jct.2011.06.001)
